≈ marks a conversion by molar mass, not a printed value. Where a SMILES comes first, the peptide text is derived from it.
Legend:
Escherichia coli [1] = test: Antibacterial activity against Escherichia coli ATCC 25922 after 18 to 24 hrs in presence of 100% human serum by CLSI-based broth microdilution method; type: functional; conditions: time hrs 18-24
[2] = Therapeutic index, ratio of MHC for human RBC to geometric mean of peptide MIC for Enterococcus faecalis ATCC 29212; type: toxicity; conditions: human red blood cells (RBC), read-out: TI
Staphylococcus aureus [3] = test: Antibacterial activity against Staphylococcus aureus ATCC 29213 after 18 to 24 hrs by CLSI-based broth microdilution method; type: functional; conditions: time hrs 18-24
[4] = Hemolytic activity in human RBC assessed as hemolysis at 1 to 128 uM relative to control; type: ADME, cell-based, Erythrocyte; conditions: human red blood cells (RBC), dose 1-128 µM, read-out: Activity
Escherichia coli [5] = test: Antibacterial activity against Escherichia coli ATCC 25922 after 18 to 24 hrs in presence of 4.5 mM K+ by CLSI-based broth microdilution method; type: functional; conditions: time hrs 18-24
Staphylococcus aureus [6] = test: Antibacterial activity against Staphylococcus aureus ATCC 29213 after 18 to 24 hrs in presence of 8 uM Zn2+ by CLSI-based broth microdilution method; type: functional; conditions: time hrs 18-24
Escherichia coli [7] = test: Antibacterial activity against Escherichia coli ATCC 25922 after 18 to 24 hrs in presence of 150 mM Na+ by CLSI-based broth microdilution method; type: functional; conditions: time hrs 18-24
[8] = Therapeutic index, ratio of MHC for human RBC to geometric mean of peptide MIC for Staphylococcus epidermidis ATCC 12228; type: toxicity; conditions: human red blood cells (RBC), read-out: TI
[9] = Therapeutic index, ratio of MHC for human RBC to geometric mean of peptide MIC for Salmonella typhimurium 7731; type: toxicity; conditions: human red blood cells (RBC), read-out: TI
[10] = Stability of compound at 100 degreeC after 30 to 90 mins; type: physicochemical; conditions: time 30-90 min
Escherichia coli [11] = test: Antibacterial activity against Escherichia coli ATCC 25922 after 18 to 24 hrs in presence of 1 mM Mg2+ by CLSI-based broth microdilution method; type: functional; conditions: time hrs 18-24
[12] = Therapeutic index, ratio of MHC for human RBC to geometric mean of peptide MIC for Streptococcus agalactiae H92; type: toxicity; conditions: human red blood cells (RBC), read-out: TI
Salmonella typhimurium [13] = test: Antibacterial activity against Salmonella typhimurium 14028 after 18 to 24 hrs by CLSI-based broth microdilution method; type: functional, Salmonella enterica subsp. enterica serovar Typhimurium; conditions: Salmonella enterica, time hrs 18-24
[14] = Therapeutic index, ratio of MHC for human RBC to geometric mean of peptide MIC for Salmonella pullorum 7913; type: toxicity; conditions: human red blood cells (RBC), read-out: TI
[15] = Therapeutic index, ratio of MHC for human RBC to geometric mean of peptide MIC for methicillin-resistant Staphylococcus aureus 43300; type: toxicity; conditions: human red blood cells (RBC), read-out: TI
Staphylococcus aureus [16] = test: Antibacterial activity against Staphylococcus aureus ATCC 29213 after 18 to 24 hrs in presence of 25% human serum by CLSI-based broth microdilution method; type: functional; conditions: time hrs 18-24
Escherichia coli [17] = test: Antibacterial activity against Escherichia coli UB1005 after 18 to 24 hrs by CLSI-based broth microdilution method; type: functional; conditions: time hrs 18-24
[18] = Cytotoxicity against HEK-293T cells assessed as cell viability at 128 uM by MTT assay relative to control; type: cell-based; conditions: human, read-out: Activity
Staphylococcus aureus [19] = test: Antibacterial activity against Staphylococcus aureus ATCC 29213 after 18 to 24 hrs in presence of 150 mM Na+ by CLSI-based broth microdilution method; type: functional; conditions: time hrs 18-24
[20] = Therapeutic index, ratio of MHC for human RBC to geometric mean of peptide MIC for Salmonella typhimurium 14028; type: toxicity; conditions: human red blood cells (RBC), read-out: TI
Streptococcus agalactiae = test: Antibacterial activity against Streptococcus agalactiae H92 after 18 to 24 hrs by CLSI-based broth microdilution method; type: functional; conditions: time hrs 18-24
[21] = Cytotoxicity against mouse RAW264.7 cells assessed as cell viability at 128 uM by MTT assay relative to control; type: cell-based; conditions: read-out: Activity
Staphylococcus aureus [22] = test: Antibacterial activity against Staphylococcus aureus ATCC 29213 after 18 to 24 hrs in presence of 4.5 mM K+ by CLSI-based broth microdilution method; type: functional; conditions: time hrs 18-24
[23] = Therapeutic index, ratio of MHC for human RBC to geometric mean of peptide MIC for Staphylococcus aureus 11011; type: toxicity; conditions: human red blood cells (RBC), read-out: TI
Escherichia coli [24] = test: Antibacterial activity against Escherichia coli ATCC 25922 after 18 to 24 hrs in presence of 8 uM Zn2+ by CLSI-based broth microdilution method; type: functional; conditions: time hrs 18-24
Escherichia coli [25] = test: Antibacterial activity against Escherichia coli ATCC 25922 after 18 to 24 hrs in presence of 6 uM Fe3+ by CLSI-based broth microdilution method; type: functional; conditions: time hrs 18-24
Staphylococcus aureus [26] = test: Antibacterial activity against Staphylococcus aureus ATCC 29213 after 18 to 24 hrs in presence of 1 mM Mg2+ by CLSI-based broth microdilution method; type: functional; conditions: time hrs 18-24
Salmonella enterica = test: Antibacterial activity against Salmonella choleraesuis 503 after 18 to 24 hrs by CLSI-based broth microdilution method; type: functional; conditions: time hrs 18-24
Escherichia coli [27] = test: Antibacterial activity against Escherichia coli ATCC 25922 after 18 to 24 hrs in presence of 25% human serum by CLSI-based broth microdilution method; type: functional; conditions: time hrs 18-24
Staphylococcus aureus [28] = test: Antibacterial activity against Staphylococcus aureus ATCC 29213 after 18 to 24 hrs in presence of 100% human serum by CLSI-based broth microdilution method; type: functional; conditions: time hrs 18-24
[29] = Antibacterial activity against Salmonella pullorum 7913 after 18 to 24 hrs by CLSI-based broth microdilution method; type: functional, Salmonella enterica subsp. enterica serovar Pullorum; conditions: Salmonella enterica, time hrs 18-24
[30] = Therapeutic index, ratio of MHC for human RBC to geometric mean of peptide MIC for Salmonella choleraesuis 503; type: toxicity; conditions: human red blood cells (RBC), read-out: TI
[31] = Therapeutic index, ratio of MHC for human RBC to geometric mean of peptide MIC for Escherichia coli ATCC 25922; type: toxicity; conditions: human red blood cells (RBC), read-out: TI
Enterococcus faecalis = test: Antibacterial activity against Enterococcus faecalis ATCC 29212 after 18 to 24 hrs by CLSI-based broth microdilution method; type: functional; conditions: time hrs 18-24
Staphylococcus aureus [32] = test: Antibacterial activity against Staphylococcus aureus 11011 after 18 to 24 hrs by CLSI-based broth microdilution method; type: functional; conditions: time hrs 18-24
Staphylococcus aureus [33] = test: Antibacterial activity against Staphylococcus aureus ATCC 29213 after 18 to 24 hrs in presence of 6 uM NH4+ by CLSI-based broth microdilution method; type: functional; conditions: time hrs 18-24
Erythrocyte = test: Hemolytic activity in human RBC assessed as hemolysis; type: ADME, cell-based
Staphylococcus aureus [34] = test: Antibacterial activity against methicillin-resistant Staphylococcus aureus 43300 after 18 to 24 hrs by CLSI-based broth microdilution method; type: functional; conditions: time hrs 18-24
Salmonella typhimurium [35] = test: Antibacterial activity against Salmonella typhimurium 7731 after 18 to 24 hrs by CLSI-based broth microdilution method; type: functional, Salmonella enterica subsp. enterica serovar Typhimurium; conditions: Salmonella enterica, time hrs 18-24
Escherichia coli [36] = test: Antibacterial activity against Escherichia coli ATCC 25922 after 18 to 24 hrs in presence of 50% human serum by CLSI-based broth microdilution method; type: functional; conditions: time hrs 18-24
[37] = system: Staphylococcus epidermidis; test: Antibacterial activity against Staphylococcus epidermidis ATCC 12228 after 18 to 24 hrs by CLSI-based broth microdilution method; type: functional; conditions: time hrs 18-24
Staphylococcus aureus [38] = test: Antibacterial activity against Staphylococcus aureus ATCC 29213 after 18 to 24 hrs in presence of 50% human serum by CLSI-based broth microdilution method; type: functional; conditions: time hrs 18-24
Escherichia coli [39] = test: Antibacterial activity against Escherichia coli ATCC 25922 after 18 to 24 hrs in presence of 6 uM NH4+ by CLSI-based broth microdilution method; type: functional; conditions: time hrs 18-24
[40] = Therapeutic index, ratio of MHC for human RBC to geometric mean of peptide MIC for Staphylococcus aureus ATCC 29213; type: toxicity; conditions: human red blood cells (RBC), read-out: TI
[41] = Therapeutic index, ratio of MHC for human RBC to geometric mean of peptide MIC for Escherichia coli UB1005; type: toxicity; conditions: human red blood cells (RBC), read-out: TI
Staphylococcus aureus [42] = test: Antibacterial activity against Staphylococcus aureus ATCC 29213 after 18 to 24 hrs in presence of 6 uM Fe3+ by CLSI-based broth microdilution method; type: functional; conditions: time hrs 18-24
Escherichia coli [43] = test: Antibacterial activity against Escherichia coli ATCC 25922 after 18 to 24 hrs by CLSI-based broth microdilution method; type: functional; conditions: time hrs 18-24

## CC[C@H](C)[C@H](N)C(=O)N[C@H](C(=O)N[C@@H](CS)C(=O)N[C@@H](CCCNC(=N)N)C(=O)N[C@@H](CCCCN)C(=O)N1CCC[C@H]1C(=O)N[C@H](C(=O)N[C@H](C(=O)N[C@@H](CS)C(=O)N[C@@H](CCCNC(=N)N)C(=O)N[C@@H](CCCCN)C(=O)N1CCC[C@H]1C(=O)N[C@H](C(=O)N[C@H](C(=O)N[C@@H](CS)C(=O)N[C@@H](CCCNC(=N)N)C(=O)N[C@@H](CCCCN)C(=O)N1CCC[C@H]1C(=O)N[C@H](C(=O)N[C@H](C(=O)N[C@@H](CS)C(=O)N[C@@H](CCCNC(=N)N)C(=O)N[C@@H](CCCCN)C(=O)N1CCC[C@H]1C(=O)N[C@H](C(=O)N[C@H](C(N)=O)[C@@H](C)CC)[C@@H](C)CC)[C@@H](C)CC)[C@@H](C)CC)[C@@H](C)CC)[C@@H](C)CC)[C@@H](C)CC)[C@@H](C)CC)[C@@H](C)CC (H-IICRKPIICRKPIICRKPIICRKPII-NH2)
Escherichia coli [1]
  MIC: 16 µM
[2]
  selectivity ratio: 6.35
Staphylococcus aureus [3]
  MIC: 32 µM (≈ 98.8 µg/mL)
[4]
  hemolysis at up to 128 µM: < 5%
Escherichia coli [5]
  MIC: 2 µM
Staphylococcus aureus [6]
  MIC: 32 µM
Escherichia coli [7]
  MIC: 8 µM
[8]
  selectivity ratio: 6.35
[9]
  selectivity ratio: 50.8
[10]
  Stabilty: Stable
Escherichia coli [11]
  MIC: 8 µM
[12]
  selectivity ratio: 6.35
Salmonella typhimurium [13]
  MIC: 2 µM (≈ 6.17 µg/mL)
[14]
  selectivity ratio: 50.8
[15]
  selectivity ratio: 6.35
Staphylococcus aureus [16]
  MIC: 64 µM
Escherichia coli [17]
  MIC: 1 µM (≈ 3.09 µg/mL)
[18]
  viability at 128 µM: > 90%
Staphylococcus aureus [19]
  MIC: 64 µM
[20]
  selectivity ratio: 50.8
Streptococcus agalactiae
  MIC: 16 µM (≈ 49.4 µg/mL)
[21]
  viability at 128 µM: > 90%
Staphylococcus aureus [22]
  MIC: 64 µM
[23]
  selectivity ratio: 6.35
Escherichia coli [24]
  MIC: 2 µM
Escherichia coli [25]
  MIC: 2 µM
Staphylococcus aureus [26]
  MIC: 64 µM
Salmonella enterica
  MIC: 4 µM (≈ 12.3 µg/mL)
Escherichia coli [27]
  MIC: 4 µM
Staphylococcus aureus [28]
  MIC: 64 µM
[29]
  MIC: 8 µM (≈ 24.7 µg/mL)
[30]
  selectivity ratio: 50.8
[31]
  selectivity ratio: 50.8
Enterococcus faecalis
  MIC: 32 µM (≈ 98.8 µg/mL)
Staphylococcus aureus [32]
  MIC: 16 µM (≈ 49.4 µg/mL)
Staphylococcus aureus [33]
  MIC: 32 µM
Erythrocyte
  MHC: > 128 µM
Staphylococcus aureus [34]
  MIC: 16 µM (≈ 49.4 µg/mL)
Salmonella typhimurium [35]
  MIC: 2 µM (≈ 6.17 µg/mL)
Escherichia coli [36]
  MIC: 4 µM
[37]
  MIC: 16 µM (≈ 49.4 µg/mL)
Staphylococcus aureus [38]
  MIC: 64 µM
Escherichia coli [39]
  MIC: 2 µM
[40]
  selectivity ratio: 6.35
[41]
  selectivity ratio: 50.8
Staphylococcus aureus [42]
  MIC: 32 µM
Escherichia coli [43]
  MIC: 2 µM (≈ 6.17 µg/mL)

Source: ChEMBL document CHEMBL4665709, “Rational Avoidance of Protease Cleavage Sites and Symmetrical End-Tagging Significantly Enhances the Stability and Therapeutic Potential of Antimicrobial Peptides” (J Med Chem, 2020)
